In this test the target is T1, IP receptor (Homo sapiens, UniProt P43119).
T1 construct: expressed in transfected cells; host or cells: CHO cells stably expressing the IP receptor (CHO-IP)
Briefly: cAMP accumulation in CHO cells stably expressing the IP receptor (CHO-IP), PerkinElmer AlphaScreen assay. The format is cell-based. The settings on record: agonist activity, 1 hour at room temperature, 4-parameter logistic fit. On the procedure:
Activity of compounds at the IP receptor (IP receptor) is assessed by measuring cAMP accumulation in CHO cells stably expressing the IP receptor (CHO-IP) using the PerkinElmer AlphaScreen assay. This technology measures the endogenous production of cAMP, in a non-radioactive luminescence proximity homogenous assay. A biological reaction occurs between streptavidin coated donor beads, biotinylated cAMP and anti-cAMP acceptor beads, bringing the donor and acceptor beads close enough together so that upon excitation a fluorescence signal is produced. On production of endogenous cAMP, competition between the biotinylated cAMP and cellular-derived cAMP causes a reduction in the fluorescent signal. The reduction in signal is proportional to the amount of cAMP being produced, thus it is possible to quantify the amount of cAMP being produced on stimulation with agonist.
Test and reference compounds are prepared at 100×[final] in 100% DMSO, and diluted 1:3 using a Biomek Fx (Beckman Coulter). This is followed by an intermediate dilution to give 5×[final] in assay buffer (HBSS containing 5 mM HEPES, 0.1% (w/v) BSA). 5 μL of 5×[final] test compounds, reference compounds and buffer/DMSO control are then transferred to a 384-well white OptiPlate, containing 20 μL CHO-IP cell suspension (15,000 cells/well, prepared from frozen), and plate is incubated at room temperature for 1 hour. A cAMP standard curve is constructed for each experiment (concentration range of 10000 nM to 0.001 nM, in assay buffer) and 25 μL of each concentration added to the last two columns of the assay plate. The incubation is terminated by the addition of lysis buffer (dH2O; 0.3% (v v^−1) Tween-20) containing 20 units mL^−1 streptavidin coated donor beads and biotinylated cAMP (pre-incubated for 30 minutes) and 20 units mL^−1 anti-cAMP acceptor beads, which are added to the lysis buffer just before addition to the assay plate. The assay plate is then incubated at room temperature in the dark, for 60 minutes with gentle shaking, and read on the Envision plate reader (Perkin Elmer).
The raw data of the reference compounds, test compounds and controls are converted into cAMP concentrations, using the cAMP standard curve, in GraphPadPrism (GraphPad Software Inc). EC50 as well as maximal values of the agonist curves are determined using a 4-parameter logistic equation. The % maximum response values of all test compounds are determined using the top of the treprostinil concentration-response curve.
A general note: Cyclic AMP is a second messenger, typically raised through Gs and lowered through Gi signalling.

T1 sequence (P43119 whole entry): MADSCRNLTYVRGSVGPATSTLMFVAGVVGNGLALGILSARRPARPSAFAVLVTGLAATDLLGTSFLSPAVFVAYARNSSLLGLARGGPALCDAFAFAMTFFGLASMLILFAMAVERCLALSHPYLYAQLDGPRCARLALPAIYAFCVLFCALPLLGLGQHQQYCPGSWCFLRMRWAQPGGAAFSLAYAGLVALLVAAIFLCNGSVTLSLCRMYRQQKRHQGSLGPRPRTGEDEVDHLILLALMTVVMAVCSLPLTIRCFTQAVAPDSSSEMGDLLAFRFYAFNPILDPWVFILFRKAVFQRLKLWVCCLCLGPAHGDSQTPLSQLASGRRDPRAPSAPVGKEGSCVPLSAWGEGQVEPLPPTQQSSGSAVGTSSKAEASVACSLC

Consider `Cc1ccc(-c2nc3cc(C4CC4)n(CCCCCCC(=O)O)c3nc2-c2ccc(C)cc2)cc1` [Example 1, 7-(6-Cyclopropyl-2,3-di-p-tolyl-5H-pyrrolo[2,3-b]pyrazin-5-yl)heptanoic acid], for which the EC50 – broadly, the midpoint of the concentration-response curve – is 1.7 nM.

Regarding `CCOC(=O)CCCCCCn1c(C2CC2)cc2nc(-c3ccc(C)cc3)c(-c3ccc(C)cc3)nc21` [Example 1.1, Ethyl 7-(6-cyclopropyl-2,3-di-p-tolyl-5H-pyrrolo[2,3-b]pyrazin-5-yl)heptanoate], the EC50 came to 57.5 nM.

As for `Cc1ccc(-c2nc3cc(C(C)C)n(CCCCCCC(=O)O)c3nc2-c2ccc(C)cc2)cc1` [Example 1.2, 7-(6-Isopropyl-2,3-di-p-tolyl-pyrrolo[2,3-b]pyrazin-5-yl)-heptanoic acid], the concentration giving a half-maximal response (EC50) is 1.8 nM.

Take `CCOC(=O)CCCCCCn1c(C(C)C)cc2nc(-c3ccc(C)cc3)c(-c3ccc(C)cc3)nc21` [Example 1.3, ethyl 7-(6-isopropyl-2,3-di-p-tolyl-5H-pyrrolo[2,3-b]pyrazin-5-yl)heptanoate]: the 50% effective concentration (EC50) is 283 nM.

Molecule `CCOC(=O)CCCCCCn1ccc2nc(-c3ccc(C)cc3)c(-c3ccc(C)cc3)nc21` [Example 1.4, 7-(2,3-Di-p-tolyl-pyrrolo[2,3-b]pyrazin-5-yl)-heptanoic acid ethyl ester] yielded a half-maximal effective concentration (EC50) of 18.3 nM.

Turning to `Cc1ccc(-c2nc3ccn(CCCCCCC(=O)O)c3nc2-c2ccc(C)cc2)cc1` [Example 1.5, 7-(2,3-Di-p-tolyl-pyrrolo[2,3-b]pyrazin-5-yl)-heptanoic acid], a half-maximal response (EC50) required 6.9 nM.

On to `Cc1ccc(-c2nc3c(C=O)cn(CCCCCCC(=O)O)c3nc2-c2ccc(C)cc2)cc1` [Example 2.1, 7-(7-Formyl-2,3di-p-tolyl-5H-pyrrolo[2,3-b]pyrazin-5-yl)heptanoic acid], for which the midpoint of the response, the EC50, lay at 7.1 nM.

In turn, `Cc1ccc(-c2nc3c(CO)cn(CCCCCCC(=O)O)c3nc2-c2ccc(C)cc2)cc1` [Example 2.2, 7-(7-(Hydroxymethyl)-2,3-di-p-tolyl-5H-pyrrolo[2,3-b]pyrazin-5-yl)heptanoic acid] gave an EC50 of 17.4 nM.

In turn, `CCOC(=O)CCCCCCn1cc(CO)c2nc(-c3ccc(C)cc3)c(-c3ccc(C)cc3)nc21` [Example 3, Ethyl 7-(7-(hydroxymethyl)-2,3-di-p-tolyl-5H-pyrrolo[2,3-b]pyrazin-5-yl)heptanoate] returned an EC50 of 325 nM.

As to `CCOC(=O)CCCCCCn1cc(CNC(C)C)c2nc(-c3ccc(C)cc3)c(-c3ccc(C)cc3)nc21` [Example 4.1, Ethyl 7-(7-((isopropylamino)methyl)-2,3-di-p-tolyl-5H-pyrrolo[2,3-b]pyrazin-5-yl)heptanoate], the EC50 was found to be 415 nM.

`Cc1ccc(-c2nc3c(CNC(C)C)cn(CCCCCCC(=O)O)c3nc2-c2ccc(C)cc2)cc1` [Example 4.2, 7-(7-((Isopropylamino)methyl)-2,3-di-p-tolyl-5H-pyrrolo[2,3-b]pyrazin-5-yl)heptanoic acid]: the response was half-maximal at 79.7 nM (EC50).

`COc1cc2nc(-c3ccc(C)cc3)c(-c3ccc(C)cc3)nc2n1CCCCCCC(=O)O` [Example 5, 7-(6-Methoxy-2,3-di-p-tolyl-pyrrolo[2,3-b]pyrazin-5-yl)-heptanoic acid] showed an EC50 of 0.7 nM.

As for `CCOC(=O)CCCCCCN1CCc2nc(-c3ccc(C)cc3)c(-c3ccc(C)cc3)nc21` [Example 6, Ethyl 7-(2,3-di-p-tolyl-6,7-dihydro-5H-pyrrolo[2,3-b]pyrazin-5-yl)heptanoate], the concentration for a half-maximal effect (EC50) turned out to be 1.8 nM.

`Cc1ccc(-c2nc3cc(CCCCC(=O)O)[nH]c3nc2-c2ccc(C)cc2)cc1` [Example 7, 5-(2,3-Di-p-tolyl-5H-pyrrolo[2,3-b]pyrazin-6-yl)-pentanoic acid] yielded an EC50 of 320 nM.

For the molecule `Cc1ccc(-c2nc3cc(CCCCC(=O)NCC(=O)O)[nH]c3nc2-c2ccc(C)cc2)cc1` [Example 8, 2-(5-(2,3-Di-p-tolyl-5H-pyrrolo[2,3-b]pyrazin-6-yl)pentanamido)acetic acid], the EC50 was found to be 1250 nM.

For the molecule `Cc1ccc(-c2nc3cc(C)n(CCCCCCC(=O)O)c3nc2-c2ccc(C)cc2)cc1` [Example 9, 7-(6-Methyl-2,3-di-p-tolyl-5H-pyrrolo[2,3-b]pyrazin-5-yl)heptanoic acid], the concentration for a half-maximal effect (EC50) is 0.3 nM.

With `O=C(O)CCCCCCn1c(C2CC2)cc2nc(-c3ccccc3)c(-c3ccccc3)nc21` [Example 10, 7-(6-Cyclopropyl-2,3-diphenyl-pyrrolo[2,3-b]pyrazin-5-yl)-heptanoic acid], the EC50 stood at 0.5 nM.

`COc1ccc(-c2nc3cc(C4CC4)n(CCCCCCC(=O)O)c3nc2-c2ccc(C)cc2)cc1` [Example 10.1, 7-(6-cyclopropyl-2-(4-methoxy-phenyl)-3-(p-tolyl)-5H-pyrrolo[2,3-b]pyrazin-5-yl)heptanoic acid] showed an EC50 of 2.4 nM.

In turn, `O=C(O)CCCCCCn1c(C2CC2)cc2nc(-c3ccc(Cl)cc3)c(-c3ccc(Cl)cc3)nc21` [Example 10.2, 7-(2,3-bis(4-chlorophenyl)-6-cyclopropyl-5H-pyrrolo[2,3-b]pyrazin-5-yl)heptanoic acid] came in with an EC50 of 5.6 nM.

With `CCc1ccc(-c2nc3cc(C4CC4)n(CCCCCCC(=O)O)c3nc2-c2ccc(C)cc2)cc1` [Example 10.3, 7-(6-cyclopropyl-2-(4-ethylphenyl)-3-(p-tolyl)-5H-pyrrolo[2,3-b]pyrazin-5-yl)heptanoic acid], the half-maximal effective concentration (EC50) was 6.8 nM.

For the molecule `Cc1cccc(-c2nc3cc(C4CC4)n(CCCCCCC(=O)O)c3nc2-c2cccc(C)c2)c1` [Example 10.4, 7-(6-cyclopropyl-2,3-di-m-tolyl-5H-pyrrolo[2,3-b]pyrazin-5-yl)heptanoic acid], the concentration giving a half-maximal response (EC50) is 60.6 nM.

For `CCc1ccc(-c2nc3c(cc(C4CC4)n3CCCCCCC(=O)O)nc2-c2ccc(C)cc2)cc1` [Example 10.5, 7-(6-cyclopropyl-3-(4-ethylphenyl)-2-(p-tolyl)-5H-pyrrolo[2,3-b]pyrazin-5-yl)heptanoic acid], it took 4.4 nM to reach a half-maximal effect (EC50).

Take `COc1ccc(-c2nc3c(cc(C4CC4)n3CCCCCCC(=O)O)nc2-c2ccc(C)cc2)cc1` [Example 10.6, 7-(6-cyclopropyl-3-(4-methoxyphenyl)-2-(p-tolyl)-5H-pyrrolo[2,3-b]pyrazin-5-yl)heptanoic acid]: the concentration for a half-maximal effect (EC50) turned out to be 6.1 nM.

As for `Cc1ccc(-c2nc3cc(C4CC4)n(CCCCCCC(=O)O)c3nc2-c2cccc(C)c2)cc1` [Example 10.7, 7-(6-cyclopropyl-3-(m-tolyl)-2-(p-tolyl)-5H-pyrrolo[2,3-b]pyrazin-5-yl)heptanoic acid], the EC50 was found to be 37.1 nM.

`Cc1ccc(-c2nc3c(cc(C4CC4)n3CCCCCCC(=O)O)nc2-c2cccc(C)c2)cc1` [Example 10.8, 7-(6-cyclopropyl-2-(m-tolyl)-3-(p-tolyl)-5H-pyrrolo[2,3-b]pyrazin-5-yl)heptanoic acid] registered a concentration giving a half-maximal response (EC50) of 2.5 nM.

On to `Cc1ccc(-c2nc3cc(CCO)n(CCCCCCC(=O)O)c3nc2-c2ccc(C)cc2)cc1` [Example 11, 7-(6-(2-Hydroxyethyl)-2,3-di-p-tolyl-5H-pyrrolo[2,3-b]pyrazin-5-yl)heptanoic acid], for which the 50% effective concentration (EC50) came to 1.6 nM.

Turning to `Cc1ccc(-c2nc3cc(C4CC4)n(CCCCC(=O)O)c3nc2-c2ccc(C)cc2)cc1` [Example 12, 5-(6-Cyclopropyl-2,3-di-p-tolyl-5H-pyrrolo[2,3-b]pyrazin-5-yl)pentanoic acid], a half-maximal effect (EC50) was put at 660 nM.

Molecule `Cc1ccc(-c2nc3cc(C4CC4)n(CCCCCC(=O)O)c3nc2-c2ccc(C)cc2)cc1` [Example 13, 6-(6-Cyclopropyl-2,3-di-p-tolyl-5H-pyrrolo[2,3-b]pyrazin-5-yl)hexanoic acid] yielded a concentration for a half-maximal effect (EC50) of 2.4 nM.

For `COCc1cn(CCCCCCC(=O)O)c2nc(-c3ccc(C)cc3)c(-c3ccc(C)cc3)nc12` [Example 14, 7-(7-(Methoxymethyl)-2,3-di-p-tolyl-5H-pyrrolo[2,3-b]pyrazin-5-yl)heptanoic acid], the concentration giving a half-maximal response (EC50) was 4.2 nM.

For the molecule `Cc1ccc(-c2nc3c(nc2-c2ccc(C)cc2)N(CCCCCCC(=O)O)C(=O)C3)cc1` [Example 15, 7-(6-oxo-2,3-dip-tolyl-6,7-dihydro-5H-pyrrolo[2,3-b]pyrazin-5-yl)heptanoic acid], the half-maximal effective concentration (EC50) was found to be 3.6 nM.

Consider `Cc1ccc(-c2nc3cc(C(F)(F)F)n(CCCCCCC(=O)O)c3nc2-c2ccc(C)cc2)cc1` [Example 16, 7-(2,3-Dip-tolyl-6-(trifluoromethyl)-5H-pyrrolo[2,3-b]pyrazin-5-yl)heptanoic acid], for which a half-maximal effect (EC50) was put at 3 nM.

As for `CCc1c(CC)n(CCCCCCC(=O)O)c2nc(-c3ccc(C)cc3)c(-c3ccc(C)cc3)nc12` [Example 17, 7-(6,7-Diethyl-2,3-di-p-tolyl-5H-pyrrolo[2,3-b]pyrazin-5-yl)heptanoic acid], the half-maximal effective concentration (EC50) was determined as 0.5 nM.

For the origin of these results see patent publication US8937069B2, “Substituted pyrrolo[2,3-B]pyrazine compounds and their use” (Novartis AG, priority 2012, dated 2015).
